The values below come from article PMC9818267, “Brain Natriuretic Peptide Protects Cardiomyocytes from Apoptosis and Stimulates Their Cell Cycle Re-Entry in Mouse Infarcted Hearts” (Cells, 2022).

No end group written: not given here.

For data set [1], the system named is phospholamban (PLB). Nature of the data set: Western blot pPLB/PLB in adult CMs stimulated in vitro. Format: cell-based, mouse. The following applies: adult CMs stimulated with BNP for 2–3 h in vitro, vs untreated. How it is done:
(§1) CM isolations were performed thanks to the Langendorff-Free method. […] Thereafter, the heart was removed from the chest and the left ventricle was perfused with enzymatic solution containing collagenase II (120 U/mL), collagenase IV (120 U/mL) (Worthington, Biochemical Corporation, USA) and protease XIV (0.05 mg/mL or 0.175 U/mL) (Sigma-Aldrich, Merck, Darmstadt, Germany). In each experiment, a full digestion of the heart was obtained. After digestion, cardiac cells were dissociated by gentle pipetting, filtered and collected after 25 min sedimentation. For infarcted hearts, the tissue was separated into the three zones (ZI, BZ and RZ). The three different areas were weighted before gentle pipetting.
(§2) Total proteins were extracted from CMs isolated from adult infarcted and unmanipulated neonatal and adult hearts. Proteins were transferred to nitrocellulose membranes (Biorad) before incubation with primary antibodies overnight at 4 °C. Secondary antibodies were added 1 h at RT in the dark (Supplementary File S1). The signal was detected and quantified with the Odyssey infrared imaging system (LI-COR. Biosciences, Bad Homburg, Germany). All results were normalized to the tubulin protein level or to the total protein level thanks to stainings with the Revert 700 Total protein Stain (LI-COR).

For data set [2], the system named is Troponin T. Nature of the data set: Troponin T plasma concentration (ECLIA) after MI. Format: in vivo, mouse. The following applies: BNP vs saline. How it is done: Troponin T plasma levels were quantified using an electrochemiluminescence immunoassay analyzer “ECLIA” (cobas e 801 immunoanalysis system, Roche Diagnostics, Rotkreuz, Switzerland) in the hematology laboratory of the Centre Hospitalier Universitaire Vaudois (CHUV). Blood was collected 24 h and 3 days after infarction induction in heparin microvette (Sarstedt, Nümbrecht, Germany).

The subject of data set [3] is cardiomyocytes (CMs). The data set is described as follows: qRT-PCR on CMs isolated from treated hearts. Format: in vivo, mouse. How it is done: BNP was injected into infarcted adults, and unmanipulated neonatal and adult mice. Directly after surgery, NaCl (saline) or BNP (1.3 µg/20 g in 20 µL) was injected into the left ventricle cavity. At 24 h after MI, mice were intraperitoneal (ip) injected with BNP (2 µg/20 g mice) or saline every 2 days. C57BL/6 mice were sacrificed 1- and 14 days post-MI and Myh6 MerCreMer mice were sacrificed 14 days post-MI (Figure 1A). Neonatal C57BL/6 mice (3 days after birth) were injected ip with NaCl or BNP every two days (1 µg/2 g; Bachem; synthetic mouse BNP (1–45) peptide (catalog number H-7558)). Mice were sacrificed 11 days after birth (Figure 1B). Eight week old C57 BL/6 mice or Myh6 MerCreMer unmanipulated mice were injected ip with BNP (2 µg/20 g mice) or NaCl every two days (Figure 1C). Two weeks after the first injection, mice were sacrificed. To assess for the implication of the ERK signaling pathway in the BNP effect on CMs, PD0325901 (60 µg/20 g mice in 80 µL) was administered by gavage in adult unmanipulated mice 1 h before BNP injection (2 µg/20 g mice).
as §1
qRT-PCR were performed using the SYBR Premix Ex Taq polymerase (Takara Bio Inc., Shiga, Japan) with the ViiA^TM7 Instrument (Applied Biosystems, Waltham, MA, USA). Total RNA was isolated from heart tissue, CM cell cultures and isolated CMs using TRI-Reagent (Zymo Research, Orange County, CA, USA). cDNA was synthesized from RNA using PrimeScript RT reagent kit (Takara Bio Inc.). Polymerase chain reactions (PCR) were performed using the SYBR Premix Ex Taq polymerase (Takara Bio Inc.) with the ViiA^TM7 Instrument (Applied Biosystems). Results were obtained after 40 cycles of a thermal step protocol consisting of an initial denaturation of 95 °C (1 s), followed by 60 °C (20 s) of elongation (α-skeletal actin has an elongation time of 30 s at 60 °C). The sequences of primers were reported in Supplementary File S2. All results were normalized with the 18S housekeeping gene (Δ CT values). Means of ΔΔ CT (Δ CTBNP–Δ CTsaline) values (versus untreated cells or NaCl treated mice) were calculated and results were represented as 2^−ΔΔCT. Statistics were performed on ΔΔ CT individual values. SEM fold increase was calculated using 2^−ΔΔ CT high values − 2^−means of ΔΔCT [13].

For data set [4] the following is noted: cited from earlier work. An excerpt:
In previous work, we highlighted the cardioprotective effect of BNP intraperitoneal (ip) injections in infarcted mice. Contractility increased twofold and heart remodeling (the percentage of changes of the left ventricle volume) decreased (−79%, p = 0.04) 4 weeks after MI in BNP-treated mice when compared to saline-injected mice. At the cellular level, BNP injections decreased the infarct size by 20% and reduced fibrosis. At least a part of the BNP positive effect in infarcted mice is due to increased cardiac angiogenesis and vasculogenesis. Indeed, BNP stimula ... || The concentrations of BNP used in this study were already shown to stimulate the mobilization, proliferation and differentiation of the endothelial precursor cells. In our first work, we verified that these concentrations have no impact on blood pressure, heart rate and cardiac output. In contrast, these BNP concentrations decrease the heart remodeling, the left ventricular volume and left ventricular end diastolic diameter and increase by 2-fold the contractility, 4 weeks after MI [11]. Furthermore, at the cellular level, these BNP concentrations increase the number of ca ...

Data set [5] relates to cleaved caspase-3. The data set is described as follows: Western blot cleaved caspase-3 in infarct zone. The following applies: ZI one day after MI, BNP vs saline. The format is in vivo, mouse.
Description: At sacrifice, mice were weighted, the heart excised and weighted. The apex was embedded into OCT and slowly frozen for immunohistochemistry analysis. For quantitative RT-PCR (qRT-PCR) and/or Western blot analysis, the rest of the heart was quickly frozen in N2. Hearts from infarcted animals were separated into 3 zones for molecular and cellular analysis including CM isolation: (1) the infarction zone (ZI), (2) the border zone (BZ) and (3) the remote zone (RZ). The different areas were processed under microscopy: the ZI area is easily detectable by the color and the presence of the suture, the BZ corresponds to 0.5 mm tissue around the ZI and the rest of the heart is the RZ.
as §2

Setting [6] is: CMs from border area of infarcted hearts, BNP vs saline.
Setting [7] is: CMs from unmanipulated adult hearts, BNP vs saline.

With “Brain Natriuretic Peptide (SQGSTLRVQQRPQNSKVTHISSCFGHKIDRIGSVSRLGCNALKLL; not fully specified; ends and bridges not checked; UniProt P40753 77-121, looked up) [BNP, synthetic mouse BNP (1–45) peptide (Bachem, catalog number H-7558)]”, the pPLB/PLB ratio increase in data set [1] amounted to 2.1 ×. For the same substance, the “Troponin T plasma concentration decrease” value was determined as 2.6 × in data set [2] (1 day after MI) and 2.1 × in data set [2] (3 days after MI). For the same substance, the “hearts with increased cyclin A2 and B2 mRNA in isolated CMs” value in data set [3] (CMs from BZ of BNP-treated infarcted hearts, vs saline) is listed as 4 out of 8. The “mRNA expression of myh7, acta1, hif1α” value in data set [3] (CMs from RZ of BNP-treated infarcted hearts (data not shown)) is listed as “No difference”. Further, the “acta1 mRNA level increase” value is reported as 2 × in data set [3] (setting [6]) and 1.4 × in data set [3] (setting [7]). The “hif1α mRNA level increase” value in data set [3] (setting [6]) is given as 1.4 ×; in data set [3] (CMs from neonatal BNP-treated hearts, vs saline), 1.5 ×; in data set [3] (setting [7]) it was 1.8 ×. The “myh7 mRNA level increase” value in data set [3] (setting [7]) is listed as 1.9 ×. For the same substance, in data set [3] (CMs isolated from all neonatal BNP-treated hearts, vs saline), the “mRNAs coding for cyclins E1, A2 or B2” value was “increased levels”. Also, the “CM isolations with increased cyclin A2 or B2 mRNA” value in data set [3] (unmanipulated adult BNP-treated hearts, vs saline) is 5 out of 7. The “heart remodeling (percentage of changes of the left ventricle volume) change” value in data set [4] (4 weeks after MI, BNP vs saline, p = 0.04) is listed as −79%. Besides, the contractility increase result in data set [4] (4 weeks after MI, BNP vs saline) is “twofold”. For the same substance, in data set [4] (BNP concentrations used in this study), the “impact on blood pressure, heart rate and cardiac output” value is on record as “no impact”. For the same substance, the “decrease of infarct size” value in data set [4] (BNP injections in infarcted mice) is reported as 20%. Further, the “caspase 3 protein level change” value in data set [5] is −42%.
